Reference: ChEMBL document CHEMBL4411344, “Synthesis and biological evaluation of new long-chain squaramides as anti-chagasic agents in the BALB/c mouse model” (Bioorg Med Chem, 2019)
Active and inactive are the calls of the source. The rule behind the calls is not given here.

What was measured:
Trypanosoma cruzi [1] = assay: Antitrypanosomal activity against Trypanosoma cruzi MHOM/Pe/2011/Arequipa DTU 5 epimastigotes assessed as effect on parasite glycolytic pathway by measuring increase in acetate excretion at IC25 after 72 hrs by 1H NMR method; format: functional, organism-based
Trypanosoma cruzi [2] = assay: Antitrypanosomal activity against Trypanosoma cruzi MHOM/Pe/2011/Arequipa DTU 5 epimastigotes assessed as effect on parasite glycolytic pathway by measuring increase in ethanol excretion at IC25 after 72 hrs by 1H NMR method; format: functional
Trypanosoma cruzi [3] = assay: Antitrypanosomal activity against Trypanosoma cruzi MHOM/Pe/2011/Arequipa DTU 5 epimastigotes assessed as effect on parasite glycolytic pathway by measuring increase in D-lactate excretion at IC25 after 72 hrs by 1H NMR method; format: functional, organism-based
Trypanosoma cruzi [4] = assay: Trypanocidal activity against Trypanosoma cruzi MHOM/Pe/2011/Arequipa DTU 5 amastigotes infected in African green monkey Vero cells assessed as reduction in infected cells at <= 12 uM after 72 hrs by Giemsa-staining based assay; format: functional, organism-based
[5] = Nephrotoxicity in Balb/c mouse infected with Trypanosoma cruzi MHOM/Pe/2011/Arequipa DTU 5 trypomastigotes assessed as decrease in serum uric acid level at 20 mg/kg, po once daily for 5 consecutive days starting from day 10 post infection measured on day 127 post infection relative to control; format: toxicity, organism-based; conditions: in vivo
Trypanosoma cruzi [6] = assay: Antitrypanosomal activity against Trypanosoma cruzi MHOM/Pe/2011/Arequipa DTU 5 epimastigotes assessed as effect on parasite glycolytic pathway by measuring decrease in L-alanine excretion at IC25 after 72 hrs by 1H NMR method; format: functional, organism-based
[7] = Cardiotoxicity in Balb/c mouse infected with Trypanosoma cruzi MHOM/Pe/2011/Arequipa DTU 5 trypomastigotes assessed as decrease in serum LDH level at 20 mg/kg, po once daily for 5 consecutive days starting from day 75 post infection measured on day 127 post infection relative to control; format: toxicity, organism-based; conditions: in vivo
[8] = (§1) Cardiotoxicity in Balb/c mouse infected with Trypanosoma cruzi MHOM/Pe/2011/Arequipa DTU 5 trypomastigotes assessed as decrease in serum LDH level at 20 mg/kg, po once daily for 5 consecutive days starting from day 75 post infection measured on day 81 post infection relative to control; format: toxicity, organism-based; conditions: in vivo
[9] = as §1, with “ratio of creatine kinase in muscle to brain” for “serum LDH level”; format: toxicity, organism-based; conditions: in vivo
[10] = Hepatotoxicity in Balb/c mouse infected with Trypanosoma cruzi MHOM/Pe/2011/Arequipa DTU 5 trypomastigotes assessed as increase in serum ALT to GPT level at 20 mg/kg, po once daily for 5 consecutive days starting from day 10 post infection measured on day 16 post infection relative to control; format: toxicity, organism-based; conditions: in vivo
[11] = Hepatotoxicity in Balb/c mouse infected with Trypanosoma cruzi MHOM/Pe/2011/Arequipa DTU 5 trypomastigotes assessed as increase in total bilirubin level at 20 mg/kg, po once daily for 5 consecutive days starting from day 10 post infection measured on day 16 post infection relative to control; format: toxicity, organism-based; conditions: in vivo

**Q.** Which results are given for `CCCCCCCCCCCCCCCCNc1c(N(C)CCCN(C)C)c(=O)c1=O`?
**A.** Activity (Trypanosoma cruzi [1]): Active; Activity (Trypanosoma cruzi [2]): 51%; Activity (Trypanosoma cruzi [3]): Active

**Q.** What does the source list for `CCCCCCNc1c(N(C)CCCN(C)C)c(=O)c1=O`?
**A.** Activity (Trypanosoma cruzi [4]): inactive; Activity [5]: 10 to 20 mg/dL; Activity (Trypanosoma cruzi [6]): Active

**Q.** For `O=C(Cn1ccnc1[N+](=O)[O-])NCc1ccccc1` [BENZNIDAZOLE], which Activity [7] is on record?
**A.** 10 to 20 U/L

**Q.** And the Activity [8]?
**A.** 20 to 30 U/L

**Q.** What about the Activity [9] of the same compound?
**A.** 10 to 20 U/L

**Q.** And the Activity [10]?
**A.** > 40 U/L

**Q.** And the Activity [11]?
**A.** 20 to 30 mg/dL
